Assay [1] deals with Staphylococcus aureus. In words: Antibacterial activity against Staphylococcus aureus harboring mutant SPase by CLSI broth microdilution method. The format is functional.
For the next assay, the system named is Streptococcus agalactiae. In words: Antibacterial activity against wild type Streptococcus agalactiae by CLSI broth microdilution method. The assay is classed as functional. A general note: Dilution methods test growth across graded concentrations, often in twofold steps.
Assay [2] relates to Pseudomonas aeruginosa. In words: Antibacterial activity against Pseudomonas aeruginosa harboring mutant SPase by CLSI broth microdilution method. The format is functional.
Assay [3] relates to Streptococcus pneumoniae. The assay is described as follows: Antibacterial activity against wild type Streptococcus pneumoniae by CLSI broth microdilution method. The format is functional.
Assay [4] deals with Staphylococcus epidermidis. The assay is described as follows: Antibacterial activity against Staphylococcus epidermidis harboring mutant SPase by CLSI broth microdilution method. The assay is classed as functional.
The test system of assay [5] is Staphylococcus aureus. The assay is described as follows: Antibacterial activity against wild type Staphylococcus aureus by CLSI broth microdilution method. The assay is classed as functional.
The subject of assay [6] is Staphylococcus epidermidis. In words: Antibacterial activity against wild type Staphylococcus epidermidis by CLSI broth microdilution method. The assay is classed as functional.
Assay [7] deals with Pseudomonas aeruginosa. The assay is described as follows: Antibacterial activity against wild type Pseudomonas aeruginosa by CLSI broth microdilution method. The assay is classed as functional.
The test system of assay [8] is Escherichia coli. In words: Antibacterial activity against Escherichia coli harboring mutant SPase by CLSI broth microdilution method. The assay is classed as functional.
Assay [9] relates to Escherichia coli. The assay is described as follows: Antibacterial activity against wild type Escherichia coli by CLSI broth microdilution method. The assay is classed as functional.
Assay [10] concerns Staphylococcus epidermidis. In words: Antibacterial activity against Staphylococcus epidermidis assessed as growth inhibition. The format is functional.
Another assay deals with Helicobacter pylori. In words: Antibacterial activity against Helicobacter pylori harboring SPase with alanine residue at position 29 by modified CLSI microbroth dilution method. The assay is classed as functional.
In assay [11] the test system is Pseudomonas aeruginosa. In words: Antibacterial activity against Pseudomonas aeruginosa harboring SPase P84S mutant gene by modified CLSI microbroth dilution method. The assay is classed as functional.
In assay [12] the test system is Escherichia coli. In words: Antibacterial activity against Escherichia coli harboring wild type SPase by modified CLSI microbroth dilution method. The assay is classed as functional.
Assay [13] deals with Staphylococcus epidermidis. The assay is described as follows: Antibacterial activity against Staphylococcus epidermidis harboring wild type SPase by modified CLSI microbroth dilution method. The assay is classed as functional.
The test system of assay [14] is Staphylococcus aureus. In words: Antibacterial activity against Staphylococcus aureus harboring SPase P29S mutant gene by modified CLSI microbroth dilution method. The format is functional.
Assay [15] is described as follows: Binding affinity to Escherichia coli delta 2 to 75 truncated type 1 signal peptidase by fluorescence analysis.
Assay [16] relates to Staphylococcus epidermidis. In words: Antibacterial activity against Staphylococcus epidermidis harboring SPase S29P mutant gene by modified CLSI microbroth dilution method. The assay is classed as functional.
The next assay concerns Streptococcus pyogenes. The assay is described as follows: Antibacterial activity against Streptococcus pyogenes harboring SPase with alanine residue at position 29 by modified CLSI microbroth dilution method. The format is functional.
The subject of a further assay is Chlamydia trachomatis. The assay is described as follows: Antibacterial activity against Chlamydia trachomatis harboring SPase with leucine residue at position 29 by modified CLSI microbroth dilution method. The assay is classed as functional.
Assay [17] has as its system Staphylococcus epidermidis. The assay is described as follows: Antibacterial activity against Staphylococcus epidermidis harboring SPase with serine residue at position 29 by modified CLSI microbroth dilution method. The assay is classed as functional.
Assay [18] deals with Streptococcus pneumoniae. In words: Antibacterial activity against Streptococcus pneumoniae harboring SPase with aspargine residue at position 29 by modified CLSI microbroth dilution method. The format is functional.
Assay [19] deals with Escherichia coli. In words: Antibacterial activity against Escherichia coli harboring SPase P84S mutant gene by modified CLSI microbroth dilution method. The format is functional.
For assay [20], the system named is Pseudomonas aeruginosa. In words: Antibacterial activity against Pseudomonas aeruginosa harboring wild type SPase by modified CLSI microbroth dilution method. The assay is classed as functional.
The test system of assay [21] is Staphylococcus aureus. In words: Antibacterial activity against Staphylococcus aureus harboring wild type SPase by modified CLSI microbroth dilution method. The format is functional.
The test system of assay [22] is Corynebacterium glutamicum. The assay is described as follows: Antibacterial activity against Corynebacterium glutamicum harboring SPase with methionine residue at position 29 by modified CLSI microbroth dilution method. The format is functional.
Assay [23] deals with Staphylococcus haemolyticus. The assay is described as follows: Antibacterial activity against Staphylococcus haemolyticus harboring SPase with serine residue at position 29 by modified CLSI microbroth dilution method. The format is functional.
The next assay relates to Rhodococcus opacus. In words: Antibacterial activity against Rhodococcus opacus harboring SPase with valine residue at position 29 by modified CLSI microbroth dilution method. The assay is classed as functional.
For the next assay, the system named is Prescottella equi. The assay is described as follows: Antibacterial activity against Rhodococcus equi harboring SPase with valine or isoleucine residue at position 29 by modified CLSI microbroth dilution method. The format is functional. The conditions noted are these: Rhodococcus (subgen. Prescottella) equi.
In a further assay the test system is Lactococcus lactis. In words: Antibacterial activity against Lactococcus lactis harboring SPase with leucine residue at position 29 by modified CLSI microbroth dilution method. The format is functional.

In brackets after ≈: the same amount, converted by molar mass.

By MIC is commonly meant the least concentration at which growth counts as inhibited. As for `CCCCCCCCCCCCCCCC(=O)N(C)[C@H](CO)C(=O)N[C@H](C)C(=O)NCC(=O)N(C)[C@@H]1C(=O)N[C@@H](C)C(=O)N[C@H](C(=O)O)Cc2cc(c(O)c([N+](=O)[O-])c2)-c2cc1ccc2O`, the minimum inhibitory concentration (MIC) was 4 µg/mL (≈ 4.32 µM) in the assay with Staphylococcus aureus [1]; 8 µg/mL (≈ 8.64 µM) in the assay on Streptococcus agalactiae; 8 µg/mL (≈ 8.64 µM) in the assay on Pseudomonas aeruginosa [2]; 16 µg/mL (≈ 17.3 µM) in the assay on Streptococcus pneumoniae [3]; 8 µg/mL (≈ 8.64 µM) in [4]; more than 64 µg/mL in the assay on Staphylococcus aureus [5]. In addition, the minimum inhibitory concentration (MIC) in [6] was 0.25 µg/mL (≈ 0.27 µM); against Pseudomonas aeruginosa [7], more than 64 µg/mL; against Escherichia coli [8], 2 µg/mL (≈ 2.16 µM); against Escherichia coli [9] it was more than 64 µg/mL.

Take `CCCCCCCCCCCCCCCC(=O)N(C)[C@H](CO)C(=O)N[C@H](C)C(=O)NCC(=O)N(C)[C@@H]1C(=O)N[C@@H](C)C(=O)N[C@H](C(=O)O)Cc2ccc(O)c(c2)-c2cc1ccc2O[C@@H]1O[C@@H](C)[C@H](O)[C@@H](O)[C@H]1O`: the MIC was 4 µg/mL (≈ 3.89 µM) against Staphylococcus aureus [1]; more than 64 µg/mL in the assay with Streptococcus agalactiae; 16 µg/mL (≈ 15.6 µM) in the assay with Pseudomonas aeruginosa [2]; 8 µg/mL (≈ 7.79 µM) with Streptococcus pneumoniae [3]; 8 µg/mL (≈ 7.79 µM) in assay [4]; more than 64 µg/mL in the assay on Staphylococcus aureus [5]. Moreover, the MIC in [6] is 0.25 µg/mL (≈ 0.243 µM); against Pseudomonas aeruginosa [7], more than 64 µg/mL; in the assay with Escherichia coli [8] it was 2 µg/mL (≈ 1.95 µM); with Escherichia coli [9] it was more than 64 µg/mL.

Regarding `CC(C)CCCCCCCCC(=O)N(C)[C@H](CO)C(=O)N[C@H](C)C(=O)NCC(=O)N(C)[C@@H]1C(=O)N[C@@H](C)C(=O)N[C@H](C(=O)O)Cc2ccc(O)c(c2)-c2cc1ccc2O` [ARYLOMYCIN A2], the MIC in assay [10] turned out to be 0.5 µg/mL (≈ 0.606 µM).

The term Kd denotes the constant that tells how readily two partners part at equilibrium. Read a low Kd as a tighter complex. For the molecule `CCCCCCCCCCCCCCCC(=O)N(C)[C@H](CO)C(=O)N[C@H](C)C(=O)NCC(=O)N(C)[C@@H]1C(=O)N[C@@H](C)C(=O)N[C@H](C(=O)O)Cc2ccc(O)c(c2)-c2cc1ccc2O` [ARYLOMYCIN C16], the minimum inhibitory concentration (MIC) is 4 µg/mL (≈ 4.54 µM) in the assay on Helicobacter pylori; 4 µg/mL (≈ 4.54 µM) in the assay with Staphylococcus aureus [1]; 8 µg/mL (≈ 9.08 µM) against Pseudomonas aeruginosa [11]; 0.5 µg/mL (≈ 0.567 µM) in [10]; more than 64 µg/mL with Streptococcus agalactiae; more than 128 µg/mL against Escherichia coli [12]. Besides, the MIC in the assay with Pseudomonas aeruginosa [2] is 8 µg/mL (≈ 9.08 µM); in assay [13] it was 0.25 µg/mL (≈ 0.284 µM); against Streptococcus pneumoniae [3], 8 µg/mL (≈ 9.08 µM); with Staphylococcus aureus [14] it was 2 µg/mL (≈ 2.27 µM); in [4], 8 µg/mL (≈ 9.08 µM); against Staphylococcus aureus [5] it was more than 64 µg/mL. For the same molecule, the minimal inhibitory concentration (MIC) in assay [16] was 8 µg/mL (≈ 9.08 µM); in the assay with Streptococcus pyogenes, 16 µg/mL (≈ 18.2 µM); against Chlamydia trachomatis, 6 µg/mL (≈ 6.81 µM); in [17], 0.25 µg/mL (≈ 0.284 µM); in assay [6], 0.25 µg/mL (≈ 0.284 µM); against Pseudomonas aeruginosa [7] it was more than 64 µg/mL. Also, the MIC was 2 µg/mL (≈ 2.27 µM) in the assay with Escherichia coli [8]; 16 µg/mL (≈ 18.2 µM) with Streptococcus pneumoniae [18]; 4 µg/mL (≈ 4.54 µM) against Escherichia coli [19]; more than 64 µg/mL against Escherichia coli [9]; more than 128 µg/mL in the assay with Pseudomonas aeruginosa [20]; more than 128 µg/mL in the assay on Staphylococcus aureus [21]. Moreover, the minimum inhibitory concentration (MIC) in assay [22] was 2 µg/mL (≈ 2.27 µM); in assay [23], 2 µg/mL (≈ 2.27 µM); against Rhodococcus opacus, 2 µg/mL (≈ 2.27 µM); in the assay on Prescottella equi, 16 µg/mL (≈ 18.2 µM); in the assay on Lactococcus lactis, more than 128 µg/mL. In addition, binding in assay [15] was put at a Kd of 979 nM.
